Assay results reported in ChEMBL document CHEMBL1142514, “Improved synthesis of 6-epi-dictyostatin and antitumor efficacy in mice bearing MDA-MB231 human breast cancer xenografts” (2008).

Columns and labels:
Format in all cases: functional
[1] = tested on: MDA-MB-231; assay: Antitumor activity against human MDA-MB-231 cells xenografted in CB17 SCID mouse assessed as one tumor doubling time administered at 20 mg/kg, iv q7d in 3 schedule
[2] = tested on: MDA-MB-231; assay: Antitumor activity against human MDA-MB-231 cells xenografted in CB17 SCID mouse assessed as ratio of median tumor volume for drug to vehicle administered at 20 mg/kg, iv q7d in 3 schedule after 17 days
[3] = tested on: MDA-MB-231; assay: Antitumor activity against human MDA-MB-231 cells xenografted in CB17 SCID mouse assessed as two tumor doubling time administered at 20 mg/kg, iv q7d in 3 schedule
[4] = tested on: MDA-MB-231; assay: Antitumor activity against human MDA-MB-231 cells xenografted in CB17 SCID mouse assessed as ratio of median tumor volume for drug to control administered at 20 mg/kg, iv q7d in 3 schedule after 14 days

## CC(=O)O[C@H]1C(=O)[C@@]2(C)[C@H]([C@H](OC(=O)c3ccccc3)[C@]3(O)C[C@H](OC(=O)[C@H](O)[C@@H](NC(=O)c4ccccc4)c4ccccc4)C(C)=C1C3(C)C)[C@]1(OC(C)=O)CO[C@@H]1C[C@@H]2O [PACLITAXEL]
[1]
  Activity: 7.9 days
[2]
  Activity: 31%
[3]
  Activity: 19 days
[4]
  T/C: 33%
